Measurements from US6749864B2, “Stabilized pharmaceutical composition” (Takeda Chemical Industries, Ltd., priority 1986, dated 2004).

What was measured:
[1] = Storage of granules of different benzimidazole compounds with heavy magnesium carbonate or lactose, changes in appearance (Experimental Example 2); format: physicochemical; set-up: key to Changes in appearance after 1 week at 50° C. and 75% RH: −: No changes; ++: Severely; conditions: for Changes in appearance after 1 week at 50° C. and 75% RH: granules as in Example 5; for stability of the pharmaceutical compositions of the invention: granules with heavy magnesium carbonate, 50° C. and 75% RH, 1 week
Source text: Granules were produced in the same manner as in Example 5 except that the compound (A), the compound (C), the compound (D), omeprazole or timoprazole was used instead of the compound (B). […] As a control to each composition, granules were also produced in the same manner except that lactose was used instead of heavy magnesium carbonate and stored under the same conditions.

[2] = Control: lactose instead of heavy magnesium carbonate
[3] = Invention: additive heavy magnesium carbonate

SMILES	Changes in appearance after 1 week at 50° C. and 75% RH [1, 2]	Changes in appearance after 1 week at 50° C. and 75% RH [1, 3]	stability of the pharmaceutical compositions of the invention [1]	melting point
Cc1c(OCC(F)(F)C(F)(F)F)ccnc1C[S+]([O-])c1nc2ccccc2[nH]1 (stereo not shown) [Compound (A), 2-[[3-methyl-4-(2,2,3,3,3-pentafluoropropoxy)-2-pyridyl]methyl-sulfinyl]benzimidazole]	++	−	stable	161 to 163 °C (dec.)
COc1ccc2nc([S+]([O-])Cc3ncc(C)c(OC)c3C)[nH]c2c1 (stereo not shown) [Omeprazole, 5-Methoxy-2-[(4-methoxy-3,5-dimethyl-2-pyridyl)methylsulfinyl]benzimidazole]	++	−	stable	
[O-][S+](Cc1ccccn1)c1nc2ccccc2[nH]1 (stereo not shown) [Timoprazole, 2-[(2-Pyridyl)methylsulfinyl]benzimidazole]	++	−	stable	
